Legend:
[1] = biological target: T1, Wee1 (Homo sapiens, UniProt P30291+Q96SW2); experiment: Western-blot assay, substrate protein in hPBMCs; format: cell-based; conditions: hPBMC cells, 24 hours, tested at 50 nM and 500 nM, table does not say which
T1 construct: endogenous in cells; host or cells: human PBMCs (Milecell Biotechnologies)
Method in brief: (§1)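 Thawed hPBMCs, 1×10^6 cells/mL; 24 h compound; RIPA + phosphatase inhibitor lysis, BCA-normalised loading, SDS-PAGE, NC transfer, immunodetection. Bands vs internal control → % remaining; DC50 = concentration at 50% of DMSO band intensity.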

[2] = biological target: T2, IKZF2 (Homo sapiens, UniProt Q96SW2+Q9UKS7); experiment: Western-blot assay, substrate protein in hPBMCs; format: cell-based; conditions: hPBMC cells, 24 hours, tested at 50 nM and 500 nM, table does not say which
T2 construct: endogenous in cells; host or cells: human PBMCs (Milecell Biotechnologies)
T2 sequence (Q9UKS7 whole entry): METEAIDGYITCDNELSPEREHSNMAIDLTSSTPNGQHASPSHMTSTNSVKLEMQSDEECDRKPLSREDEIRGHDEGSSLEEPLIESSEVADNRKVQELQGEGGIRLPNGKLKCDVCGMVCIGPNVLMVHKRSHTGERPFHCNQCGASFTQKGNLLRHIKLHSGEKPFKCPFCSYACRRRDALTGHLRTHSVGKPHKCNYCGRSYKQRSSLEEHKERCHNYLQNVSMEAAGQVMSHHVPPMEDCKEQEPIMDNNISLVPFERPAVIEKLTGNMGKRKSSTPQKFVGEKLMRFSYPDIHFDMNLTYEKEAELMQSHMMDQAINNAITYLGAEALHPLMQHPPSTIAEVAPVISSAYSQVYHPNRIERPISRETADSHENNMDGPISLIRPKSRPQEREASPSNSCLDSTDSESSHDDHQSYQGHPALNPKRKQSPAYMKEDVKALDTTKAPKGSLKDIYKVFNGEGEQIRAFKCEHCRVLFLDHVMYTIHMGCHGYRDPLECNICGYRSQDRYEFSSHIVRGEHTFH
T2 sequence (Q96SW2 whole entry): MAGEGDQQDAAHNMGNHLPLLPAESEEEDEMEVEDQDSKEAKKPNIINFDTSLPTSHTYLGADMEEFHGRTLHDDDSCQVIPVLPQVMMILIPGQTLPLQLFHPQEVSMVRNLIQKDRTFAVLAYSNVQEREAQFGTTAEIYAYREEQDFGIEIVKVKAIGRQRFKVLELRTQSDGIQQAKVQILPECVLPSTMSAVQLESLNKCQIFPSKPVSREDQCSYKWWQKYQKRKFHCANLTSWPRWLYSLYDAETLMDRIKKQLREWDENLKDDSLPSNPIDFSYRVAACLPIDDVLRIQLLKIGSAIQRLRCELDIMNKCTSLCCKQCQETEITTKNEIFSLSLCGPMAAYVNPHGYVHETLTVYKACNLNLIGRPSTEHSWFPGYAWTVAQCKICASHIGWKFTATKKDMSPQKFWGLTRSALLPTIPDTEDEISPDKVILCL
T2 sequence (Q16531 whole entry partner): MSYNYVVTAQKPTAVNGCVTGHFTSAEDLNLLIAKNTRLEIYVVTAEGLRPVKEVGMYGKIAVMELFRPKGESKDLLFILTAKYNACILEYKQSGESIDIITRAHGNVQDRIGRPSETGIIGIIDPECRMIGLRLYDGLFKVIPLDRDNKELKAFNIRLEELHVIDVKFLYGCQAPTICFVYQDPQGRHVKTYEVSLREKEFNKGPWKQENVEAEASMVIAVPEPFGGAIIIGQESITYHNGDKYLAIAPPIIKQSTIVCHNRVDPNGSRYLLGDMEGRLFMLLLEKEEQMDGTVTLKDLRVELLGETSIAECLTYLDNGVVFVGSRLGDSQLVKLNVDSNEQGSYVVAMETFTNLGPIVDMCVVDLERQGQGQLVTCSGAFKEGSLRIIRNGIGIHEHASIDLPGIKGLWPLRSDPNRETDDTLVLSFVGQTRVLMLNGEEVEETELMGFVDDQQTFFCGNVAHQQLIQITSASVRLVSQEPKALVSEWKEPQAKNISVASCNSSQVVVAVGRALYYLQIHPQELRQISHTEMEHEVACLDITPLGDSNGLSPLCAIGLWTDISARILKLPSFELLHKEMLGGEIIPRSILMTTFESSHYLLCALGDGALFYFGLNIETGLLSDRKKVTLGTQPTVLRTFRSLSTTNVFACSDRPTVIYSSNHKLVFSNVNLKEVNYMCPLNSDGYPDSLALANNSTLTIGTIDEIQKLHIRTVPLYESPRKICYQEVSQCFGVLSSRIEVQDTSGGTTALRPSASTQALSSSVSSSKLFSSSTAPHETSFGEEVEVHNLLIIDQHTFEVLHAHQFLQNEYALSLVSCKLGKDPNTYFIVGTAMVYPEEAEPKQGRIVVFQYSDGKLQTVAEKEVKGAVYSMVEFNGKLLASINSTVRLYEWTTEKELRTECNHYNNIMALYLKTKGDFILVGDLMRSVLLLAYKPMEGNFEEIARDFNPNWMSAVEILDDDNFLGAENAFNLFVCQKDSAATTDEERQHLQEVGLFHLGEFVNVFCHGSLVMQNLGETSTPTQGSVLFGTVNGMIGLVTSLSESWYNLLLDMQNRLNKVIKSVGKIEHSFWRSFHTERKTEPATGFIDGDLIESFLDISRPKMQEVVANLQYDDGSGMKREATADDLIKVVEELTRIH
Method in brief: as §1

[3] = biological target: T3, GSPT1 (Homo sapiens, UniProt P15170+Q96SW2); experiment: Western-blot assay, substrate protein in hPBMCs; format: cell-based; conditions: hPBMC cells, 24 hours, tested at 50 nM and 500 nM, table does not say which
T3 construct: endogenous in cells; host or cells: human PBMCs (Milecell Biotechnologies)
T3 sequence (P15170 whole entry): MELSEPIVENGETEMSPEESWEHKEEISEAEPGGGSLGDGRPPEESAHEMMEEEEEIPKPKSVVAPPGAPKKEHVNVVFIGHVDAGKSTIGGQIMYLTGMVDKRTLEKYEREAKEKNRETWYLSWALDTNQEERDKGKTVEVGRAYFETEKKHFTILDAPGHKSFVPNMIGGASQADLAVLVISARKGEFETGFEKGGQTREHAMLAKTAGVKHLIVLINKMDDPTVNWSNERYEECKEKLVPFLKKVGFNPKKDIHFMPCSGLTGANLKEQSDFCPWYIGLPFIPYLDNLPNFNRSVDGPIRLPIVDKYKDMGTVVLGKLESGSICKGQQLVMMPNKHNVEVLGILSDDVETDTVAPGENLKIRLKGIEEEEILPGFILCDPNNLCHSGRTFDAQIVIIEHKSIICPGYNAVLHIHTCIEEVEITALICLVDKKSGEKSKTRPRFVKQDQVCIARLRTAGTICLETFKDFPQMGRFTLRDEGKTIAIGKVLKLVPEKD
T3 sequence (Q96SW2 whole entry): as the sequence (Q96SW2 whole entry) above
T3 sequence (Q16531 whole entry partner): as the sequence (Q16531 whole entry partner) above
Method in brief: as §1

[4] = biological target: T4, human Cereblon WT GST-tagged protein (Homo sapiens, UniProt Q96SW2); experiment: CRBN-binding affinity, HTRF (CEREBLON BINDING kit); conditions: displacement of Thalidomide-Re reagent, 3 hours at room temperature
T4 construct: purchased CISBIO 64BDCRBNPEH
T4 sequence (Q96SW2 whole entry): as the sequence (Q96SW2 whole entry) above
Method in brief: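 Compounds displace a thalidomide-Re tracer from GST-tagged human Cereblon WT, detected with an Eu-labelled anti-GST antibody by time-resolved fluorescence. Signal at 620 nm was normalised against solvent and blank controls.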

[5] = biological target: T5, IKZF1 (Homo sapiens, UniProt Q13422+Q96SW2); experiment: Western-blot assay, substrate protein in hPBMCs; format: cell-based; conditions: hPBMC cells, 24 hours, tested at 50 nM and 500 nM, table does not say which
T5 construct: endogenous in cells; host or cells: human PBMCs (Milecell Biotechnologies)
T5 sequence (Q13422 whole entry): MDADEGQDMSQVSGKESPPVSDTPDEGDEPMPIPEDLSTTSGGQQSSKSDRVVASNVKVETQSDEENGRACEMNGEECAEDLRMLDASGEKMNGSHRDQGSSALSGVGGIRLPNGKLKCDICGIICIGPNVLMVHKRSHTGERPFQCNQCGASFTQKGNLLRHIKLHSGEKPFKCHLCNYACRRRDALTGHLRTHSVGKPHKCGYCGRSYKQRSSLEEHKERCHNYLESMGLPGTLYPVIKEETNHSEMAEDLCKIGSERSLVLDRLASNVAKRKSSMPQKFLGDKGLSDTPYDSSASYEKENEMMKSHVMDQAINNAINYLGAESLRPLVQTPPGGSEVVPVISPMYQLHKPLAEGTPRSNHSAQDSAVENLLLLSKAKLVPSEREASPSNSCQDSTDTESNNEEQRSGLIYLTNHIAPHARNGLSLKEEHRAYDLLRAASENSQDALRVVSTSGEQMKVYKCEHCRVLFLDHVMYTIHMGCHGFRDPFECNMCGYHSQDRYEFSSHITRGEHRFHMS
T5 sequence (Q96SW2 whole entry): as the sequence (Q96SW2 whole entry) above
T5 sequence (Q16531 whole entry partner): as the sequence (Q16531 whole entry partner) above
Description: The effect of the compounds of the present disclosure on the expression of target proteins in cells was detected using conventional Western blot analysis.
Human peripheral blood mononuclear cells (hPBMCs) at a density of 1×10^6 cells/mL were thawed according to the PBMC Recovery Protocol (Milecell Biotechnologies Inc, Shanghai). The cells were then treated with the compounds of the present disclosure (including the compounds listed in Tables 1 and 2, and the Examples A1-A20 and 1-116 compounds) at concentrations of 50 nM and 500 nM.
Controls included a negative control (DMSO) and a positive control (the commercial immunomodulatory drug lenalidomide), both processed following the identical experimental protocol as the compounds of the present disclosure. After 24 hours of compounds treatment, cells were harvested and lysed in RIPA protein lysate containing phosphatase inhibitors on ice for 30-60 min, followed by centrifugation. The supernatant was aspirated as the extracted total cell protein. The protein concentration of the supernatant was determined using the conventional BCA (Bicinchoninic Acid) assay. The supernatant was then mixed with 4× SDS sample loading buffer, denatured at 95° C. for 5 minutes, and then subjected to SDS-PAGE electrophoresis on a polyacrylamide gel. Proteins were then transferred to a nitrocellulose (NC) membrane, blocked at room temperature for 1-2 h, and processed for antibody incubation and detection according to the manufacturer's instructions (Cell Signaling Technology).
Half-Maximal Degradation Concentration value (the drug concentration required for degrading proteins by 50%, abbreviated as DC50) reads method: comparing the grayscale values of Western blot bands from drug-treated samples with those from blank DMSO-treated controls, and identifying the drug concentration range at which the grayscale value is half that of the DMSO-treated control bands.
DC50 values can be calculated using ImageJ software to measure grayscale values of Western blot bands from drug-treated samples. The concentration-response curve is fitted to estimate the drug concentration corresponding to half the grayscale value.
Target protein remaining (%) refers to the percentage of target protein remaining in hPBMC cells after treatment with protein degrader compounds.
Calculation method for protein remaining (%): Use ImageJ software to measure grayscale values of Western blot bands from drug (protein degrader)-treated samples. The grayscale value of drug-treated bands is divided by that of internal control protein bands, and the resulting quotient is normalized to obtain the relative percentage of remaining target protein after protein degrader treatment.
Target protein degradation rate (%)=100%−target protein remaining (%).

[6] = biological target: T6, CK1α (Homo sapiens, UniProt P48729+Q96SW2); experiment: Western-blot assay, substrate protein in hPBMCs; format: cell-based; conditions: hPBMC cells, 24 hours, tested at 50 nM and 500 nM, table does not say which
T6 construct: endogenous in cells; host or cells: human PBMCs (Milecell Biotechnologies)
T6 sequence (P48729 whole entry): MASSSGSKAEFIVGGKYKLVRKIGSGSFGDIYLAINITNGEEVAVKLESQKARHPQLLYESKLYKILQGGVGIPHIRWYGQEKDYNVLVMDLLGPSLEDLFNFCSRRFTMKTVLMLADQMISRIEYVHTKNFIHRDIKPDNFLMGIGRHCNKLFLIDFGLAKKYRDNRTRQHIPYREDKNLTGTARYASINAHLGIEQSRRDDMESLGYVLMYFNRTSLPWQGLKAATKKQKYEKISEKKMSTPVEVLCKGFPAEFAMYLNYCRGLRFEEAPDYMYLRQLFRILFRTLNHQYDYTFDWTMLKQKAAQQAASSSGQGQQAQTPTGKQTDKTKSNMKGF
T6 sequence (Q96SW2 whole entry): as the sequence (Q96SW2 whole entry) above
T6 sequence (Q16531 whole entry partner): as the sequence (Q16531 whole entry partner) above
Method in brief: as §1

T1 sequence (P30291 whole entry): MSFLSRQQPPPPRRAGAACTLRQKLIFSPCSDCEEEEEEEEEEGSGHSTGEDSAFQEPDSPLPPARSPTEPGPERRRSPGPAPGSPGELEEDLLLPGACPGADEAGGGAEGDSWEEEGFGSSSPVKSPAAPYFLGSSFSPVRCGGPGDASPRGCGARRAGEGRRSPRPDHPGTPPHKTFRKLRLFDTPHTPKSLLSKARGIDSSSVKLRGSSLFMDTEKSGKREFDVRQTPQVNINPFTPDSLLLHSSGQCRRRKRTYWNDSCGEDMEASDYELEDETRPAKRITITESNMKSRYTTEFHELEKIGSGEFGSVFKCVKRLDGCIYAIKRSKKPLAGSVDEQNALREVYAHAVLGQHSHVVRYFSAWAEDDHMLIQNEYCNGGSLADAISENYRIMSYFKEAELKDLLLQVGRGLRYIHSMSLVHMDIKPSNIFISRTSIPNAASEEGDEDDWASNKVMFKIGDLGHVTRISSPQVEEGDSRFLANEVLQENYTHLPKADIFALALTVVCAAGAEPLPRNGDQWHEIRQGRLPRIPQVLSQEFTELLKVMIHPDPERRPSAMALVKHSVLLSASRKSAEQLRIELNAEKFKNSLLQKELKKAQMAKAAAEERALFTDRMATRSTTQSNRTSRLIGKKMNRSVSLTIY
T1 sequence (Q96SW2 whole entry): as the sequence (Q96SW2 whole entry) above
T1 sequence (Q16531 whole entry partner): as the sequence (Q16531 whole entry partner) above

Row | Structure (SMILES) | substrate protein remaining % [1] | substrate protein remaining % [2] | substrate protein remaining % [3] | IC50 [4] [nM] | substrate protein remaining % [5] | substrate protein remaining % [6]
1 | O=C1CCC(N2Cc3cc(OC4CC5CN(C(=O)c6ccccc6-c6ccc(Cl)cc6)CC5C4)ccc3C2=O)C(=O)N1 (centres unmarked) [GT-06954, 3-(5-((2-(4′-chloro-[1,1′-biphenyl]-2-carbonyl)octahydro-cyclopenta[c]pyrrol-5-yl)oxy)-1-oxoisoindolin-2-yl)piperidine-2,6-dione] | A (0%≤ substrate protein remaining % ≤80%) | A (0%≤ substrate protein remaining % ≤80%) | A (0%≤ substrate protein remaining % ≤80%) | < 500 | A (0%≤ substrate protein remaining % ≤80%) | –
2 | O=C1CCC(N2Cc3cc(SC4CC5(CCN(C(c6ccccc6)c6ccccc6)CC5)C4)ccc3C2=O)C(=O)N1 (centres unmarked) [GT-06920, 3-(5-((7-benzhydryl-7-azaspiro[3.5]nonan-2-yl)thio)-1-oxoisoindolin-2-yl)piperidine-2,6-dione] | A (0%≤ substrate protein remaining % ≤80%) | – | – | < 500 | A (0%≤ substrate protein remaining % ≤80%) | –
3 | O=C1CCC(N2Cc3cc(OC4CN(Cc5ccc(-c6ccco6)s5)C4)ccc3C2=O)C(=O)N1 (centres unmarked) [GT-06562, 3-(5-((1-((5-(furan-2-yl)thiophen-2-yl)methyl)azetidin-3-yl)oxy)-1-oxoisoindolin-2-yl)piperidine-2,6-dione] | A (0%≤ substrate protein remaining % ≤80%) | – | A (0%≤ substrate protein remaining % ≤80%) | < 500 | A (0%≤ substrate protein remaining % ≤80%) | –
4 | O=C1CCC(N2Cc3cc(OC4CN(C(c5cccc(F)c5)c5cccc(F)c5)C4)ccc3C2=O)C(=O)N1 (centres unmarked) [GT-06352, 3-(5-((1-(bis(3-fluorophenyl)methyl)azetidin-3-yl)oxy)-1-oxoisoindolin-2-yl)piperidine-2,6-dione] | – | – | A (0%≤ substrate protein remaining % ≤80%) | 500 to 1000 | A (0%≤ substrate protein remaining % ≤80%) | A (0%≤ substrate protein remaining % ≤80%)
5 | CC1(C)CCC(C(=O)N2CCC(Oc3ccc4c(c3)CN(C3CCC(=O)NC3=O)C4=O)C2)=C(c2ccc(Cl)cc2)C1 (centres unmarked) [GT-06816, 3-(5-((1-(4′-chloro-5,5-dimethyl-3,4,5,6-tetrahydro-[1,1′-biphenyl]-2-carbonyl)pyrrolidin-3-yl)oxy)-1-oxoisoindolin-2-yl)piperidine-2,6-dione] | A (0%≤ substrate protein remaining % ≤80%) | A (0%≤ substrate protein remaining % ≤80%) | A (0%≤ substrate protein remaining % ≤80%) | < 500 | – | A (0%≤ substrate protein remaining % ≤80%)
6 | O=C1CCC(N2Cc3cc(SC4CN(Cc5cccc(-c6ccc(Cl)cc6)c5)C4)ccc3C2=O)C(=O)N1 (centres unmarked) [GT-06225, 3-(5-((1-((4′-chloro-[1,1′-biphenyl]-3-yl)methyl)azetidin-3-yl)thio)-1-oxoisoindolin-2-yl)piperidine-2,6-dione] | – | – | A (0%≤ substrate protein remaining % ≤80%) | < 500 | A (0%≤ substrate protein remaining % ≤80%) | –
7 | O=C1CCC(N2Cc3cc(OC4CN(C(c5ccccc5)c5ccccn5)C4)ccc3C2=O)C(=O)N1 (centres unmarked) [GT-06559, 3-(1-oxo-5-((1-(phenyl(pyridin-2-yl)methyl)azetidin-3-yl)oxy)isoindolin-2-yl)piperidine-2,6-dione] | A (0%≤ substrate protein remaining % ≤80%) | A (0%≤ substrate protein remaining % ≤80%) | A (0%≤ substrate protein remaining % ≤80%) | < 500 | – | A (0%≤ substrate protein remaining % ≤80%)
8 | CC1(C)CCC(CN2CC(Sc3ccc4c(c3)CN(C3CCC(=O)NC3=O)C4=O)C2)=C(c2ccc(Cl)cc2)C1 (centres unmarked) [GT-03464, 3-(5-((1-((4′-chloro-5,5-dimethyl-3,4,5,6-tetrahydro-[1,1′-biphenyl]-2-yl)methyl)azetidin-3-yl)thio)-1-oxoisoindolin-2-yl)piperidine-2,6-dione] | A (0%≤ substrate protein remaining % ≤80%) | – | A (0%≤ substrate protein remaining % ≤80%) | < 500 | A (0%≤ substrate protein remaining % ≤80%) | A (0%≤ substrate protein remaining % ≤80%)
9 | CC1(C)CCC(CN2CC(Sc3cccc4c3C(=O)N(C3CCC(=O)NC3=O)C4)C2)=C(c2ccc(Cl)cc2)C1 (centres unmarked) [GT-06812, 3-(7-((1-((4′-chloro-5,5-dimethyl-3,4,5,6-tetrahydro-[1,1′-biphenyl]-2-yl)methyl)azetidin-3-yl)thio)-1-oxoisoindolin-2-yl)piperidine-2,6-dione] | A (0%≤ substrate protein remaining % ≤80%) | – | A (0%≤ substrate protein remaining % ≤80%) | 1000 to 1900 | A (0%≤ substrate protein remaining % ≤80%) | –
10 | O=C1CCC(N2Cc3cc(OC4CN(C(c5ccccc5)c5cccnc5)C4)ccc3C2=O)C(=O)N1 (centres unmarked) [GT-06760, 3-(1-oxo-5-((1-(phenyl(pyridin-3-yl)methyl)azetidin-3-yl)oxy)isoindolin-2-yl)piperidine-2,6-dione] | A (0%≤ substrate protein remaining % ≤80%) | A (0%≤ substrate protein remaining % ≤80%) | – | < 500 | A (0%≤ substrate protein remaining % ≤80%) | –
11 | O=C1CCC(N2Cc3cc(SC4CN(C(c5ccc(F)cc5)c5ccc(F)cc5)C4)ccc3C2=O)C(=O)N1 (centres unmarked) [GT-06503, 3-(5-((1-(bis(4-fluorophenyl)methyl)azetidin-3-yl)thio)-1-oxoisoindolin-2-yl)piperidine-2,6-dione] | A (0%≤ substrate protein remaining % ≤80%) | – | A (0%≤ substrate protein remaining % ≤80%) | 500 to 1000 | A (0%≤ substrate protein remaining % ≤80%) | A (0%≤ substrate protein remaining % ≤80%)
12 | O=C1CCC(N2Cc3cc(SC4CN(Cc5ccc(-c6ccc(Cl)cc6)cc5)C4)ccc3C2=O)C(=O)N1 (centres unmarked) [GT-06226, 3-(5-((1-((4′-chloro-[1,1′-biphenyl]-4-yl)methyl)azetidin-3-yl)thio)-1-oxoisoindolin-2-yl)piperidine-2,6-dione] | A (0%≤ substrate protein remaining % ≤80%) | – | – | 500 to 1000 | A (0%≤ substrate protein remaining % ≤80%) | –
13 | O=C1CCC(N2Cc3cccc(SC4CNC4)c3C2=O)C(=O)N1 (centres unmarked) [GT-06994, 3-(7-(azetidin-3-ylthio)-1-oxoisoindolin-2-yl)piperidine-2,6-dione] | – | A (0%≤ substrate protein remaining % ≤80%) | – | – | A (0%≤ substrate protein remaining % ≤80%) | –
14 | CC1(C)CCC(C(=O)N2CC(Sc3ccc4c(c3)CN(C3CCC(=O)NC3=O)C4=O)C2)=C(c2ccc(Cl)cc2)C1 (centres unmarked) [GT-06137, 3-(5-((1-(4′-chloro-5,5-dimethyl-3,4,5,6-tetrahydro-[1,1′-biphenyl]-2-carbonyl)azetidin-3-yl)thio)-1-oxoisoindolin-2-yl)piperidine-2,6-dione] | A (0%≤ substrate protein remaining % ≤80%) | – | A (0%≤ substrate protein remaining % ≤80%) | 500 to 1000 | A (0%≤ substrate protein remaining % ≤80%) | –

From patent publication US20260207578A1, “COMPOUND BASED ON SULFUR/OXYGEN SUBSTITUTED GLUTARIMIDE-BASED ISOINDOLINONE SKELETON AND USE THEREOF” (Gluetacs Therapeutics (Shanghai) Co., LTD., priority 2022, published 2026)
